Literature values, collected in patent publication US9683008B2, “Synthetic bile acid compositions and methods” (Kythera Biopharmaceuticals, Inc., priority 2010, dated 2017).

Key:
albumin = albumin (Homo sapiens, UniProt P02768); details: 0.4 mg/mL deoxycholate (comparable to the fasting state), in the presence of 26 mg/mL of albumin
[1] = neutral pH

Sequence of albumin (P02768 25-609): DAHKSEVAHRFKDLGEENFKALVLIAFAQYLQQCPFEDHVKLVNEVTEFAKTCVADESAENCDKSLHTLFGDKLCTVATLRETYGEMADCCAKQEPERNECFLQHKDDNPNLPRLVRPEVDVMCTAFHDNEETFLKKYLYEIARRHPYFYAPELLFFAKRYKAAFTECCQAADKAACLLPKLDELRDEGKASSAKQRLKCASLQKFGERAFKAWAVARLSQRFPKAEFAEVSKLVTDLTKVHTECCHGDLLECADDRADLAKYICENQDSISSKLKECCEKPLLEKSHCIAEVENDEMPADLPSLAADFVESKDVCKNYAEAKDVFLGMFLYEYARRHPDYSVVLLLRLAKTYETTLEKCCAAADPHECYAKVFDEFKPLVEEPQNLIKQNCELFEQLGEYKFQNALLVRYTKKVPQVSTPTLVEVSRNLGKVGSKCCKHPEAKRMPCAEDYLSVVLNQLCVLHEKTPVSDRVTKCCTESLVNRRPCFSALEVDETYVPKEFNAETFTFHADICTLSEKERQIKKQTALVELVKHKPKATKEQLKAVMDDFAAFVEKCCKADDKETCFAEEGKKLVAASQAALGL

For `C[C@H](CCC(=O)[O-])[C@H]1CC[C@H]2[C@@H]3CC[C@@H]4C[C@H](O)CC[C@]4(C)[C@H]3C[C@H](O)[C@]12C.[Na+]` [sodium deoxycholate], the bound to albumin (albumin) is given as 98%, the critical micelle concentration [1] is given as “approximately 2.4 mg/mL” and the solubility in acetone (acetone, compared with alcohol) is given as “even less soluble”. The “solubility in glacial acetic acid” value (glacial acetic acid, compared with alcohol) was “even less soluble” and the soluble in water (water) was 333 mg/mL.
